The text below walks through data of US20220132862A1, “PSEUDOMONAS SP. STRAIN, COMPOSITION COMPRISING THE SAME, AND USES THEREOF” (FUTURECO BIOSCIENCE, S.A., priority 2019, published 2022).

The subject of the experiment is B2021. The experiment is described as follows: Antibiotic resistance, MIC by broth microdilution (BMD). It is filed as cell-based, Pseudomonas sp. The conditions noted are these: lowest antibiotic concentration that inhibited 80% of growth; LB, 18 h, 28° C. As for the experimental part:
Minimum inhibitory concentrations (MICs) for tested antibiotics were determined by the broth microdilution (BMD) method. Four antibiotics were used: Streptomycin Sulfate, Nalidixic Acid, Oxytetracycline and Erythromycine. Briefly. MICs were determined in sterile 96-well plates by two-fold serial dilutions in 100 μL of LB. […] The MIC was defined as the lowest antibiotic concentration that inhibited 80% of growth (based on OD measurements) in comparison to the control. Moreover, cell viability was confirmed by addition of 30 μL of 0.01% resazurin. Any color changes from blue-purple to pink were recorded as positive and the MIC was defined as the lowest antibiotic concentration lacking this color change.
For the molecule Streptomycine Sulfate, the “Antibiotic resistance (MIC)” value was 1600 µg/mL.
For `CN(C)[C@@H]1C(O)=C(C(N)=O)C(=O)[C@@]2(O)C(O)=C3C(=O)c4c(O)cccc4[C@@](C)(O)[C@H]3[C@H](O)[C@@H]12` [Oxytetracycline], the “Antibiotic resistance (MIC)” value is 3.13 µg/mL.
With `CC[C@H]1OC(=O)[C@H](C)[C@@H](O[C@H]2C[C@@](C)(OC)[C@@H](O)[C@H](C)O2)[C@H](C)[C@@H](O[C@@H]2O[C@H](C)C[C@H](N(C)C)[C@H]2O)[C@](C)(O)C[C@@H](C)C(=O)[C@H](C)[C@@H](O)[C@]1(C)O` [Erythromycine], the “Antibiotic resistance (MIC)” value is 240 µg/mL.
For `CCn1cc(C(=O)O)c(=O)c2ccc(C)nc21` [Nalidixic Acid], the “Antibiotic resistance (MIC)” value is 240 µg/mL.
